Assay results from EP0345251B1 (priority 1986, dated 1988).

How the values were obtained:
[1] = Chronic vincristine toxicity in mice, with and without Cronassial; type: in vivo, Male Swiss Schneider mice; details: for SURVIVORS No.at 30 d / survival at 720 h: chronic, host SN; for survival at 720 h: ip, 200 mg/kg, read-out: SURVIVAL % at 30 d
Procedure: (§1) Toxicity acute and chronic. Male Swiss Schneider mice with a body weight of 25-30g were used for these experiments. Mice were usually kept in groups of not more than 8 in standard cages. Food and water were supplied ad libidum. The animals were kept in experimental rooms under closely controlled conditions. They were weighed daily. For acute vincristine toxicity in chicks, 48 hour old SPF chicks were used.
(§2) Vincristine. A standard vial of 'Oncovin' (Eli Lilly Co.) containing 1 mg of vincristine was used. It was made up with the appropriate volume of diluting fluid to give the final concentration required to inject 0.1 ml/10 g body weight.
(§3) Cronassial®. A solution of this substance, which is a mixture of four gangliosides, was prepared by the addition of a volume of sterile distilled water sufficient to give a concentration of 200 mg/kg in a volume of 0.2 ml. This dose was given to mice of approximately 20g.
Giving daily injections of vincristine of 0.8 mg/kg for 5 days was close to the LD₅₀. By giving 200 mg/kg Cronassial® at the same time as the vincristine, the number of survivors at 30 days was increased to 100% Almost identical results were obtained by using 1 mg/kg vincristine, even though the drugs were administered for only 4 days. However the total dosage of vincristine administered in the two experiments (4 mg/kg) was identical. Increasing the cumulative dose of vincristine from 4 to 5 mg/kg increased the mortality of the mice to 100%. With this overwhelming toxicity, there was little or no protection offered by the Cronassial®.

[2] = Acute vincristine toxicity in mice, with and without Cronassial; type: in vivo, Male Swiss Schneider mice
Procedure: as §1, §2, §3

[3] = Acute vincristine toxicity in chicks, with and without Cronassial; type: in vivo, 48 hour old SPF chicks; details: for SURVIVORS AT 24hrs / SURVIVORS AT 28hrs / SURVIVORS AT 52hrs: acute, SPF 48hr chick, in combination CRON 200 mg/kg at same time
Procedure: as §1
In contrast,of those chicks which received 200 mg/kg Cronassial® at the same time as the vincristine, only 2/5 had died at 24 hours but only 1 remained alive at 28 hours.
With 4 mg/kg vincristine, 4/5 chicks survived for 24 hours but only 1/5 survived for 28 hours. The chicks which additionally, received 200 mg/kg Cronassial® survived better with 3/5 surviving to 28 hours.

sarcoma S180 = experiment: Antitumour activity against sarcoma S180 (tumour weight); type: in vivo, Male Swiss Schneider mice; details: S180, host SN; VCR 0.5 mg/kg ip days 1-6; in combination CRON 200 mg/kg ip days 1-6, 6hrs before VCR; CMC-controls 1.05
From the text: (§4) Antitumour effects. Male Swiss Schneider mice of 27g body weight were used for the sarcoma S180 experiments: female C₅₇Bl mice of 20g body weight were used for the B16 melanoma experiments; male BDF₁ mice of 30g body weight were used for the L1210 leukaemia experiments; and C₅₇Bl mice of 20g body weight were used for the Lewis lung experiments.
Sarcoma S180. This tumour has been transplanted in the same strain of mouse for more than 10 years.
Transplantation was done by subcutaneous inoculation of 0.1 ml of a tumour mash made by finely mincing viable tumour tissue and passing it repeatedly through a 26 gauge needle into a sterile Petri dish. 0.1 ml of penicillin (20,000 m/ml) and streptomycin (20,000 m/ml) were added to the mash, as well as neomycin (5 mgs).

melanoma B16 = experiment: Antitumour activity against melanoma B16 (tumour weight); type: in vivo, female C₅₇Bl mice; details: B16, host C5781; VCR 0.5 mg/kg ip days 1-4,7-11; in combination CRON 200 mg/kg, 6hrs before VCR; CMC-controls 2.33
Procedure: as §4
Melanoma B16. This tumour was prepared for inoculation in a manner identical to that used for the S180 sarcoma.

leukaemia L1210 = experiment: Antitumour activity against leukaemia L1210 (survival); type: in vivo, BDF₁ mice; details: L1210, host BDF1; VCR 1.0 mg/kg ip days 1-3; in combination CRON 200 mg/kg ip days 1-3, same time as VCR; CMC-controls 8.0
Procedure: Antitumour effects. Male Swiss Schneider mice of 27g body weight were used for the sarcoma S180 experiments: female C₅₇Bl mice of 20g body weight were used for the B16 melanoma experiments; […]; and C₅₇Bl mice of 20g body weight were used for the Lewis lung experiments.
L1210. Spleens were removed from animals 7 days after inoculation of L1210 cells and these spleens were finely minced with 1:100 isotonic saline. 0.1 ml of this spleen and leukaemia L1210 cell suspension was then injected subcutaneously into the flank of each BDF₁.

CC[C@]1(O)C[C@H]2CN(CCc3c([nH]c4ccccc34)[C@@](C(=O)OC)(c3cc4c(cc3OC)N(C=O)[C@H]3[C@@](O)(C(=O)OC)[C@H](OC(C)=O)[C@]5(CC)C=CCN6CC[C@]43[C@@H]65)C2)C1 [VCR, vincristine]
SURVIVORS No.at 30 d ([1]; VCR 0.8 mg/kg ip days 1-5, in combination CRON 200 mg/kg ip days 1-5, 6hrs before VCR): 5/8
SURVIVORS No.at 30 d ([1]; VCR 1.0 mg/kg ip days 1-4, in combination CRON 200 mg/kg ip days 1-4, 6hrs before VCR): 3/8
SURVIVORS No.at 30 d ([1]; VCR 1.0 mg/kg ip days 1-5, in combination CRON 200 mg/kg ip days 1-5, 6hrs before VCR): 0/6
survival at 720 h ([1]; mouse, in vivo, VCR 0.8 mg/kg ip days 1-5, in combination CRON 200 mg/kg ip days 1-5, 6hrs before VCR): 62.5%
survival at 720 h ([1]; mouse, in vivo, VCR 1.0 mg/kg ip days 1-4, in combination CRON 200 mg/kg ip days 1-4, 6hrs before VCR): 37.5%
survival at 720 h ([1]; mouse, in vivo, VCR 1.0 mg/kg ip days 1-5, in combination CRON 200 mg/kg ip days 1-5, 6hrs before VCR): 0%
mortality ([1]; mouse, in vivo, cumulative dose of vincristine 5 mg/kg, mice): 100%
LD50 ([1]; mouse, in vivo, daily injections of vincristine for 5 days, mice, read-out: LD₅₀): ~0.8 mg/kg
SURVIVORS No.at 30 d ([2]; acute, host SN, VCR 3.0 mg/kg iv day 1, in combination CRON 200 mg/kg ip day 1, 6hrs before VCR): 2/8
survival at 720 h ([2]; mouse, in vivo, acute, host SN, VCR 3.0 mg/kg iv day 1, in combination CRON 200 mg/kg ip day 1, 6hrs before VCR, read-out: SURVIVAL % at 30 d): 25%
mortality at 720 h ([2]; mouse, in vivo, vincristine 3.0 mg/kg, one intravenous injection, Swiss Schneider mice, in combination 200 mg/kg Cronassial 6 hours before, read-out: deaths by day 30): 75%
toxicity ([3]; 48 hour old chicks, vincristine 2 mg/kg, in combination Cronassial also given): little toxicity
chicks with no acute neurotoxic signs during the first 4 hours ([3]; 48 hour old chicks, vincristine 6 mg/kg): 3/4
dead at 24 hours ([3]; 48 hour old chicks, vincristine 6 mg/kg, in combination 200 mg/kg Cronassial at the same time): All the chicks were dead
SURVIVORS AT 24hrs ([3]; VCR 2.0 mg/kg ip day 1): 2/2
SURVIVORS AT 28hrs ([3]; VCR 2.0 mg/kg ip day 1): 2/2
SURVIVORS AT 52hrs ([3]; VCR 2.0 mg/kg ip day 1): 1/2
SURVIVORS AT 24hrs ([3]; VCR 4.0 mg/kg ip day 1): 4/5
SURVIVORS AT 28hrs ([3]; VCR 4.0 mg/kg ip day 1): 1/5
SURVIVORS AT 52hrs ([3]; VCR 4.0 mg/kg ip day 1): 1/5
SURVIVORS AT 24hrs ([3]; VCR 6.0 mg/kg ip day 1): 0/4
TUMOUR WEIGHTS MEAN (sarcoma S180): 0.64 g
TUMOUR WEIGHTS MEAN (melanoma B16): 1.46 g
Mean survival time (leukaemia L1210): 7.8 days
